Experimental findings from ChEMBL document CHEMBL1139152, “Epoxygenase eicosanoids: synthesis of tetrahydrofuran-diol metabolites and their vasoactivity” (Bioorg Med Chem Lett, 2007) are described below.

Assay [1] in a line: Vasodilatory activity assessed as relaxation of U46619-induced contraction of bovine coronary arteries. Type of assay: functional. The note with it: Bos taurus; Coronary artery.
Assay [2] can be described thus: Vasodilatory activity assessed as relaxation of U46619-induced contraction of bovine coronary arteries at 10 nM to 10 uM. Type of assay: functional, tissue-based. The settings on record: Bos taurus, Coronary artery.

The source made the active and inactive calls. The calls are words filed in the database; no cut-off is given here.

As to `CCCCCC1OC1C/C=C/C/C=C/C/C=C/CCCC(=O)O` (centres undefined), the ED50 in assay [1] is 2500 nM. Further, the result in assay [2] was Active.

In the case of `CCCCC/C=C\C[C@H]1O[C@H]([C@@H](O)C/C=C\CCCC(=O)O)C[C@@H]1O`, the outcome in assay [2] was Active.

In the case of `CCCCC/C=C\C[C@H]1O[C@H]([C@@H](O)C/C=C\CCCC(=O)O)C[C@H]1O`, the result in assay [2] was Active.

`CCCCC/C=C\C[C@H]1O[C@H]([C@H](O)C/C=C\CCCC(=O)O)C[C@@H]1O`: the result in assay [2] was Active.

For the compound `CCCCC/C=C\C[C@@H]1O[C@H]([C@H](O)C/C=C\CCCC(=O)O)C[C@H]1O`, the result in assay [2] was Active.

As to `CCCCC/C=C\C[C@H]1O[C@H]([C@H](O)C/C=C\CCCC(=O)O)C[C@H]1O`, the ED50 in assay [1] came to 3000 nM. Besides, the outcome in assay [2] was Active.

With `CCCCC/C=C\C[C@@H]1O[C@H]([C@H](O)C/C=C\CCCC(=O)O)C[C@@H]1O`, the result in assay [2] was Active.
